Assay results as given in patent US12473273B2, “Quinoline compounds and compositions for inhibiting EZH2” (Novartis AG, priority 2020, dated 2025).

Legend:
[1] = test system: H3K27 methylation in G401 cell; experiment: ELISA (H3K27 methylation) assay; assay type: cell-based; conditions: cultured 48 h with compound, normalized using H3 signal
Method: ELISA (H3K27 methylation) assay
Representative compounds of the invention were serially and separately diluted 3-fold in DO to obtain a total of eight or twelve concentrations. Then the compounds were added to G401 cell cultured in 384-well plate at 1:500 dilution to obtain the highest concentration of 20 μM. The cells were further cultured for 48 h before ELISA procedure.
Histone extraction: Cells, in 384-well plate, were washed with PBS (10 x PBS buffer (80 g NaCl (Sigma, S3014), 2 g KCl (Sigma, 60128), 14.4 g Na2HPO4 (Sigma, S5136), 2.4 g KH2PO4 (Sigma, P9791) to 1 L water, pH to 7.4) and lysed with the addition of lysis buffer (0.4N HCl; 45 μl per well). The plate was gently agitated at 4° C. for 30 min. The cell lysate was neutralized with neutralization buffer (0.5 M sodium phosphate dibasic, pH 12.5. 1 mM DTT; 36 µL per well). The plate was agitated to ensure the lysates were well mixed prior to the ELISA protocol.
ELISA protocol: Cell lysates were transferred to the wells of a 384-well plate and the final volume was adjusted to 50 μL per well with PBS. The plate was sealed, centrifuged at 2,000 rpm for 2 min and incubated at 4° C. for about 16 h. The plate was washed with TBST buffer (1 x TBS (10x TBS: 24.2 g Tris (Sigma, T6066), 80 g NaCl (Sigma, S3014) to 1 L of water and adjust pH to 7.6 with HCl) with 0.1% Tween-20). Blocking buffer (TBST, 5% BSA; 50 µL per well) was added and the plate was incubated for 1 h at rt. The blocking buffer was removed and primary antibody was added (30 μL per well). The following dilutions were performed with blocking buffer: for anti-H3K27me3 antibody (Cell Signaling Technology, #9733), dilution was 1:1000; for anti-H3K27me2 antibody (Cell Signaling Technology, #9288), dilution was 1:100; for anti-H3 antibody (Abcam, Cat #24834), dilution was 1:1000. The primary antibody was incubated in the plate at rt for 1 h. The wells were washed with TBST and incubated with secondary antibody for 1 h at rt. For secondary antibodies, the following dilutions were carried out with blocking buffer: anti-rabbit antibody (Jackson ImmunoResearch, #111-035-003), dilution was 1:2000; and anti-mouse antibody (Cell signaling technology, #7076), dilution was 1:1000.
After 1 h of incubation at rt, the wells were washed with TBST. ECL substrate (Pierce, #34080) was added at 30 μL per well and the plates were centrifuged at 2,000 rpm for 2 min. The signal was read using a PerkinElmer Envision Reader. The H3K27 methylation readouts were normalized using H3 signal and then percentage inhibition was calculated against the samples treated with DO. The data were fit to a dose response curve using the program Helios to get the IC50 values of the test compound.

[2] = target: wild type PRC2 (wtPRC2) complex (Homo sapiens, UniProt Q15910); experiment: EZH2 LC-MS Assay; assay type: biochemical; conditions: 40 nM wtPRC2 complex, 30 uM SAM, 1.5 uM H3K27me1 and 3 uM H3K27me3 peptides; SAH production
wild type PRC2 (wtPRC2) complex, sequence (Q15910 whole entry): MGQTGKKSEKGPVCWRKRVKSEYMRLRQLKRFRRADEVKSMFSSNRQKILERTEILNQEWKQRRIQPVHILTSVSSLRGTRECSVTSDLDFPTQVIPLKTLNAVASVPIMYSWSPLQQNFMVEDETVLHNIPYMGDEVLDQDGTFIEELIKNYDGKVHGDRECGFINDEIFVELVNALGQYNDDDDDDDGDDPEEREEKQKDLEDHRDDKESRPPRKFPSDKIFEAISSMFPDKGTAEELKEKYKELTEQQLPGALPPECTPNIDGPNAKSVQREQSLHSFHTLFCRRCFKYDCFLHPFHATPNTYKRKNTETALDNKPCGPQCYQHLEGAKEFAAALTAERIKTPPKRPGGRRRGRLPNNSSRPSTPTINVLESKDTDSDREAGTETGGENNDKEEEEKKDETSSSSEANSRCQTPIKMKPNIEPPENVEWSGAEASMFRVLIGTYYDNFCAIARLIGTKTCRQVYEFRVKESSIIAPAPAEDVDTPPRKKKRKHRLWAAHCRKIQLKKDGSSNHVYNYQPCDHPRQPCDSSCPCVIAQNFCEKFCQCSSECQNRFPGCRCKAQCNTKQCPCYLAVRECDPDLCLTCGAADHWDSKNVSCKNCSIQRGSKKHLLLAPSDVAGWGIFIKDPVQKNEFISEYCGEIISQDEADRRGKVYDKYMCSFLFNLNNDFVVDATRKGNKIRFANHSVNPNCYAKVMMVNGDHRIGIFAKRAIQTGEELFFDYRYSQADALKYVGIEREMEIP
wild type PRC2 (wtPRC2) complex, sequence (O75530 whole entry partner): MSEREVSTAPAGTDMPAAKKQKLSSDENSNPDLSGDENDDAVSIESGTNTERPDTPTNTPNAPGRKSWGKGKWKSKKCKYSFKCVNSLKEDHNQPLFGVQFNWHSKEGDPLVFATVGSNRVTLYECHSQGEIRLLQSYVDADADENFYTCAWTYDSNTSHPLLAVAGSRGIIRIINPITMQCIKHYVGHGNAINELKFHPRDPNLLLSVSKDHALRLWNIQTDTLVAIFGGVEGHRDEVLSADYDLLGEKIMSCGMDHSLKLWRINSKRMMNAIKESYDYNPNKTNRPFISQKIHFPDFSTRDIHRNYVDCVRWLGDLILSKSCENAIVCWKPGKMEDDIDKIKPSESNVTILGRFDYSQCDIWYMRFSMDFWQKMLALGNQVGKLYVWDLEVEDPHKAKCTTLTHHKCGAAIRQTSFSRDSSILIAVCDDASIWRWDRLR
wild type PRC2 (wtPRC2) complex, sequence (Q15022 whole entry partner): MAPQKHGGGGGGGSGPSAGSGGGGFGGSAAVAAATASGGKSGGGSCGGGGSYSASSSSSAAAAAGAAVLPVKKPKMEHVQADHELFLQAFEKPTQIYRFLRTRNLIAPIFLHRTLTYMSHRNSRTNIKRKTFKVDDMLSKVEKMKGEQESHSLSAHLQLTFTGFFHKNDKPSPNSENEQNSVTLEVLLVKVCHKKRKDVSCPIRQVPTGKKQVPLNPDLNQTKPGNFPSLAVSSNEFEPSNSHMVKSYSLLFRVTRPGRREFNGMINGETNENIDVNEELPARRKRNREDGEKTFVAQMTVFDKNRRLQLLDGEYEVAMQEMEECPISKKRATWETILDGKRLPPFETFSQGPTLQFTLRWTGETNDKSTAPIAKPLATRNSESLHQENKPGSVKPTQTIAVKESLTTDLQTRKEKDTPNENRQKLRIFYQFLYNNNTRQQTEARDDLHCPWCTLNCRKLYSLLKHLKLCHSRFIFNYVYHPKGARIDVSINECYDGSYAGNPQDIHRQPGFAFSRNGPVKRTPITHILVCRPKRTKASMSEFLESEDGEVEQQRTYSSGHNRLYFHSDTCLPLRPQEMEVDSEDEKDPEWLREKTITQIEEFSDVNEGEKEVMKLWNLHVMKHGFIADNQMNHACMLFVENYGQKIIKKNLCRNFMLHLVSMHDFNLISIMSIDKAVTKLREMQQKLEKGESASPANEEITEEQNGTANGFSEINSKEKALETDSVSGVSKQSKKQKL
Method: Representative compounds of the invention were serially and separately diluted 3-fold in DMSO to obtain twelve concentrations. Then the test compounds at each concentration (120 nL of each) were transferred by Mosquito into a 384-well Perkin Elmer ProxiPlate 384 plus plates. Solutions (6 μL) of 80 nM wild type PRC2 (wtPRC2) complex and 60 µM SAM in reaction buffer (20 mM Tris, pH 8.0, 0.1% BSA, 0.01% Triton, 0.5 mM DTT) were added to the wells that were then incubated with the test compound for 20 min. A 6 μL solution of 3 µM of the substrate peptide H3K27me1 (histone H3 [21-44]-K27me1-biotin) and 6 μM regulatory peptide H3K27me3 (histone H3 [21-44]-K27me3) in reaction buffer was added to initiate each reaction. The final components in the reaction solution include 40 nM wtPRC2 complex, 30 µM SAM, 1.5 µM H3K27me1 and 3 µM H3K27me3 peptides with varying concentration of the compounds. A positive control consisted of the enzyme at 40 nM, 30 μM SAM, 1.5 µM H3K27me1 and 3 µM H3K27me3 in the absence of the test compound, and a negative control consisted of 30 µM SAM, 1.5 µM H3K27me1 and 3 μM H3K27me3 only. Each reaction was incubated at room temperature for 120 min, then stopped by addition of 3 μL per of quench solution (2.5% TFA with 320 nM d4-SAH). The reaction mixture was centrifuged (Eppendorf centrifuge 5810, Rotor A-4-62) for 2 min at 2000 rpm and read on an API 4000 triple quadrupole mass spec with Turbulon Spray (Applied Biosystem) coupled with Prominence UFLC (Shimadzu). The levels of SAH production were normalized based on the values coming from the positive and negative controls to give percent enzyme activities. The data were fit to a dose response equation using the program Helios to get the […] values of the test compound.

IC50 [2] | Structure (SMILES) | IC50 ([1]; Homo sapiens, G-401, 48 h) | IC50 [1]
< 50 nM | Cc1ccc2ccc(N[C@H]3CC[C@H](CNc4ncc([C@@H](CO)C(=O)NC5COC5)cn4)CC3)nc2c1Cl (single isomer, unassigned) [Example 8, (S)-2-(2-((((1r,4S)-4-((8-chloro-7-methylquinolin-2-yl)amino)cyclohexyl)methyl)amino)pyrimidin-5-yl)-3-hydroxy-N-(oxetan-3-yl)propanamide; or (R)-2-(2-((((1r,4R)-4-((8-chloro-7-methylquinolin-2-yl)amino)cyclohexyl)methyl)amino)pyrimidin-5-yl)-3-hydroxy-N-(oxetan-3-yl)propanamide] |  | < 10 nM
50 to 100 nM | Cc1ccc2ccc(N[C@H]3CC[C@H](CNc4ncc([C@H](O)C(=O)NC5COC5)cn4)CC3)nc2c1Cl (single isomer, unassigned) [Example 10, (S)-2-(2-((((1r,4S)-4-((8-chloro-7-methylquinolin-2-yl)amino)cyclohexyl)methyl)amino)pyrimidin-5-yl)-2-hydroxy-N-(oxetan-3-yl)acetamide; or (R)-2-(2-((((1r,4R)-4-((8-chloro-7-methylquinolin-2-yl)amino)cyclohexyl)methyl)amino)pyrimidin-5-yl)-2-hydroxy-N-(oxetan-3-yl)acetamide] | 10 to 100 nM | 
< 50 nM | Cc1ccc2ccc(N[C@H]3CC[C@H](CNc4ncc([C@H](O)C(=O)NC5COC5)cn4)CC3)nc2c1Cl (single isomer, unassigned) [Example 11, (S)-2-(2-((((1r,4S)-4-((8-chloro-7-methylquinolin-2-yl)amino)cyclohexyl)methyl)amino)pyrimidin-5-yl)-2-hydroxy-N-(oxetan-3-yl)acetamide; or (R)-2-(2-((((1r,4R)-4-((8-chloro-7-methylquinolin-2-yl)amino)cyclohexyl)methyl)amino)pyrimidin-5-yl)-2-hydroxy-N-(oxetan-3-yl)acetamide] |  | < 10 nM
< 50 nM | Cc1ccc2ccc(N[C@H]3CC[C@H](CNc4ncc([C@H](C)C(=O)NC5COC5)cn4)CC3)nc2c1Cl (single isomer, unassigned) [Example 13, (S)-2-(2-((((1r,4S)-4-((8-chloro-7-methylquinolin-2-yl)amino)cyclohexyl)methyl)amino)pyrimidin-5-yl)-N-(oxetan-3-yl)propanamide; or (R)-2-(2-((((1r,4R)-4-((8-chloro-7-methylquinolin-2-yl)amino)cyclohexyl)methyl)amino)pyrimidin-5-yl)-N-(oxetan-3-yl)propanamide] |  | 
< 50 nM | Cc1ccc2ccc(N[C@H]3CC[C@H](CNc4ncc([C@H](C)C(=O)NC5COC5)cn4)CC3)nc2c1Cl (single isomer, unassigned) [Example 14, (S)-2-(2-((((1r,4S)-4-((8-chloro-7-methylquinolin-2-yl)amino)cyclohexyl)methyl)amino)pyrimidin-5-yl)-N-(oxetan-3-yl)propanamide; or (R)-2-(2-((((1r,4R)-4-((8-chloro-7-methylquinolin-2-yl)amino)cyclohexyl)methyl)amino)pyrimidin-5-yl)-N-(oxetan-3-yl)propanamide] |  | 
< 50 nM | Cc1ccc2ccc(N[C@H]3CC[C@H](CNc4ncc(C(O)C(=O)NC5COC5)cn4)CC3)nc2c1Cl (some centres unmarked) [Example 9, 2-(2-((((1r,4r)-4-((8-chloro-7-methylquinolin-2-yl)amino)cyclohexyl)methyl)amino)pyrimidin-5-yl)-2-hydroxy-N-(oxetan-3-yl)acetamide] | < 10 nM | 
< 50 nM | Cc1ccc2ccc(N[C@H]3CC[C@H](CNc4ncc(C(C)C(=O)NC5COC5)cn4)CC3)nc2c1Cl (some centres unmarked) [Example 12, 2-(2-((((1r,4r)-4-((8-chloro-7-methylquinolin-2-yl)amino)cyclohexyl)methyl)amino)pyrimidin-5-yl)-N-(oxetan-3-yl)propanamide] | < 10 nM | 

The remaining lines, values behind:

Structure (SMILES) | IC50 [2] | IC50 ([1]; Homo sapiens, G-401, 48 h) | IC50 [1]
Cc1ccc2ccc(N[C@H]3CC[C@H](CNc4ncc([C@@H](CO)C(=O)NC5COC5)cn4)CC3)nc2c1Cl (single isomer, unassigned) [Example 7, (S)-2-(2-((((1r,4S)-4-((8-chloro-7-methylquinolin-2-yl)amino)cyclohexyl)methyl)amino)pyrimidin-5-yl)-3-hydroxy-N-(oxetan-3-yl)propanamide; or (R)-2-(2-((((1r,4R)-4-((8-chloro-7-methylquinolin-2-yl)amino)cyclohexyl)methyl)amino)pyrimidin-5-yl)-3-hydroxy-N-(oxetan-3-yl)propanamide] | 50 to 100 nM | 10 to 100 nM | 
Cc1ccc2ccc(N[C@H]3CC[C@H](CNc4ncc(CC(=O)NC5COC5)cn4)CC3)nc2c1Cl [Example 1, 2-(2-((((1R,4R)-4-((8-chloro-7-methylquinolin-2-yl)amino)cyclohexyl)methyl)amino)pyrimidin-5-yl)-N-(oxetan-3-yl)acetamide] | < 50 nM | < 10 nM | 
Cc1ccc2ccc(N[C@H]3CC[C@H](CNc4ncc(CC(=O)N(C)C5COC5)cn4)CC3)nc2c1Cl [Example 2, 2-(2-((((1r,4r)-4-((8-chloro-7-methylquinolin-2-yl)amino)cyclohexyl)methyl)amino)pyrimidin-5-yl)-N-methyl-N-(oxetan-3-yl)acetamide] | < 50 nM | < 10 nM | 
Cc1ccc2ccc(N[C@H]3CC[C@H](CNc4ncc(C(F)(F)C(=O)NC5COC5)cn4)CC3)nc2c1Cl [Example 3, 2-(2-((((1r,4r)-4-((8-chloro-7-methylquinolin-2-yl)amino)cyclohexyl)methyl)amino)pyrimidin-5-yl)-2,2-difluoro-N-(oxetan-3-yl)acetamide] | < 50 nM | < 10 nM | 
Cc1ccc2ccc(N[C@H]3CC[C@H](CNc4ncc(C(C)(O)C(=O)NC5COC5)cn4)CC3)nc2c1Cl (some centres unmarked) [Example 4, 2-(2-((((1r,4r)-4-((8-chloro-7-methylquinolin-2-yl)amino)cyclohexyl)methyl)amino)pyrimidin-5-yl)-2-hydroxy-N-(oxetan-3-yl)propanamide] | < 50 nM | > 100 nM | 
Cc1ccc2ccc(N[C@H]3CC[C@H](CNc4ncc(C(C#N)C(=O)NC5COC5)cn4)CC3)nc2c1Cl (some centres unmarked) [Example 5, 2-(2-((((1r,4r)-4-((8-chloro-7-methylquinolin-2-yl)amino)cyclohexyl)methyl)amino)pyrimidin-5-yl)-2-cyano-N-(oxetan-3-yl)acetamide] | < 50 nM | < 10 nM | 
Cc1ccc2ccc(N[C@H]3CC[C@H](CNc4ncc(C(CO)C(=O)NC5COC5)cn4)CC3)nc2c1Cl (some centres unmarked) [Example 6, 2-(2-((((1r,4r)-4-((8-chloro-7-methylquinolin-2-yl)amino)cyclohexyl)methyl)amino)pyrimidin-5-yl)-3-hydroxy-N-(oxetan-3-yl)propanamide] | < 50 nM | < 10 nM | 
